In test [1] the target is T1, human recombinant adrenergic α2A receptor (Homo sapiens, UniProt P08913).
T1 construct: expressed in transfected cells; host or cells: insect Sf9 cells
T1 sequence (P08913 1-465): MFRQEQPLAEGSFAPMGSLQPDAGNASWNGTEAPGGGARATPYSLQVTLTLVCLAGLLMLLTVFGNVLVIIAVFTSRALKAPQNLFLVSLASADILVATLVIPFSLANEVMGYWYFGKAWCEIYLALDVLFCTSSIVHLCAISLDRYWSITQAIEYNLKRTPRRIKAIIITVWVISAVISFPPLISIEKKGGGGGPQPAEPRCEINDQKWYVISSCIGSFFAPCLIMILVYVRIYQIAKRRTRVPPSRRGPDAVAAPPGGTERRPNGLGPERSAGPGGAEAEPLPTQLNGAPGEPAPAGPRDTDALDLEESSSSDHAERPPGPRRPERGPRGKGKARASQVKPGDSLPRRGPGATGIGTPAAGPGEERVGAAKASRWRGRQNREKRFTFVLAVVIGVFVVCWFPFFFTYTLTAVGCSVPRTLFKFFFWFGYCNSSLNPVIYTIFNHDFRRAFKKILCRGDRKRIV
In words: Adrenergic α2A radioligand binding assay ([3H]MK-912). The settings on record: 0.1 μM compound; read-out: Percentage inhibition of ligand binding, Adrenergic α2A. As to the method:
To evaluate in radioligand binding assays the activity of compounds of the invention, human recombinant adrenergic α2A receptor expressed in insect Sf9 cells (Uhlen, S. et al, J. Pharmacol. Exp. Ther. 271:1558, 1994) in a modified Tris-HCl buffer (50 mM Tris-HCl, pH 7.4, 12.5 mM MgCl2, 2 mM EDTA) was used. Compounds of invention were incubated with 1 nM [^3H]MK-912 for 60 min at 25° C. MK912 was (2S-trans)-1,3,4,5′,6,6′,7,12b-octahydro-1′,3′-dimethyl-spiro[2H-benzofuro[2,3-a]quinolizine-2,4′(1′H)-pyrimidin]-2′(3′H)-one hydrochloride Non-specific binding was estimated in the presence of 10 μM WB-4101 (2-(2,6-Dimethoxyphenoxyethyl)aminomethyl-1,4-benzodioxane hydrochloride). Receptor proteins were filtered and washed, the filters were then counted to determine [^3H]MK-912 specifically bound. Compounds were screened at 1 μM or lower, using 1% DMSO as vehicle. Compounds of the invention were tested in this biochemical assay and percent inhibition of specific binding was determined. Biochemical assay results are presented as the percent inhibition of specific binding in Tables B1A-B1D.

The test system of another test is SH-SY5Y cells. The test is described as follows: Cell viability assay (MTS reduction) against 4-Br-A23187 challenge. Type of test: cell-based. The settings on record: Homo sapiens, SH-SY5Y, compound 10 nM, 4-Br-A23187 (2 μM) for 24 h, Control = 100, Vehicle = 0, read-out: Relative Cytoprotective capacity. As to the method:
SH-SY5Y cells cultured in DMEM/F12 media supplemented with 10% FBS were seeded in 96-well microplates at 150,000 cells/cm^2. After 24 h, cells were depleted from FBS and kept in culture for 24 h before the experiment. A stock solution was prepared by dissolving the calcium ionophore 4-Br-A23187 (Calbiochem Cat. N^o 100107) in DMSO at 25 mM. Cells were then treated with 4-Br-A23187 (2 μM), hydrogen peroxide (300 μM) or the mitochondrial toxin rotenone (25 μM) in the presence of vehicle or Compound of the Invention for 24 h. Cell death was determined by measurements of LDH release according to the Cytotoxicity Detection KitPlus (Roche, Mannheim, Germany). Cell viability was determined by measuring the capacity of cells to metabolize MTS tetrazolium (MTS) according to the Cytotoxicity Detection KitPlus (Roche, Mannheim, Germany) and MTS reduction was assessed by the CellTiter 96® AQueous One Solution Cell Proliferation assay (Promega Corporation, Madison, Wis., USA). Compounds were screened at 10 nM, using DMSO as vehicle. Assay results for the experiments with Br-A23187 were presented as the MTS reduction capacity (cell viability) of untreated cells (control), 4-Br-A23187-treated cells (vehicle), and co-incubation of Br-A23187 with Compounds of the Invention treated cells and using […] (FCCP) at 10 μM for 30 min as a control. This assay assesses the ability of the test compounds to protect against cell death that was mediated by mitochondrial dysfunction. In the assay, the calcium ionophore 4-Br-A23187 was used to challenge the cells, causing calcium levels to rise in mitochondria, which leads to depolarization and cell death. Test compounds were assessed for their ability to prevent cell death in response to challenge with 4-Br-A23187.

The term inhibition denotes the relative decrease from the control value, in per cent.

As for `Cc1ccc2c(c1)c1c3n2C(c2ccccc2)=CCC3(C)CN(C)C1` (stereo not shown) [D10], the inhibition at 0.1 µM in test [1] is -1%. Same read-out and setting: under `Cc1cc2c3c(c1)c1c(n3CC(C)(c3ccc(C)nc3)OC(C)C2)CCN(C)C1` (stereo not shown) [B160] stands -1%. On to `Cc1cc(-c2ccncc2)c2c(c1)c1c(n2C)CCN(C)C1` [A9], for which the viability at 0.01 µM with SH-SY5Y cells was determined as 15.8%. Moreover, the inhibition at 0.1 µM in test [1] was found to be 0%.

Consider `Cc1cc2c3c(c1)c1c(n3C(c3ccccc3)C2)CCN(C)C1` (stereo not shown) [B12], for which, in test [1], the inhibition at 0.1 µM came out at 75%. As for `Cc1ccc2c(c1)c1c3n2CC(c2ccncc2)=CCC3(C)CN(C)C1` (stereo not shown) [D11], the viability at 0.01 µM with SH-SY5Y cells came to 30.3%. Further, the inhibition at 0.1 µM in test [1] was 8%. As to `Cc1cc2c3c(c1)c1c(n3CC(C)(c3ccncc3)OC(C)C2)CCN(C)C1` (stereo not shown) [B165], in test [1], the inhibition at 0.1 µM amounted to 40%. On to `Cc1ccc2c(c1)c1c3n2C(c2ccccc2)CCC3(C)CN(C)C1` (stereo not shown) [D12], for which the viability at 0.01 µM in the test with SH-SY5Y cells was 32.5%. Moreover, the inhibition at 0.1 µM in test [1] stood at 5%. In the case of `Cc1cc(C#Cc2cccs2)c2[nH]c3c(c2c1)CN(C)CC3` [A8], the inhibition at 0.1 µM in test [1] is 20%. As for `Cc1cc(C#Cc2nccs2)c2[nH]c3c(c2c1)CN(C)CC3` [A16], in test [1], the inhibition at 0.1 µM stood at 31%. The same measure, in the same setting: with `Cc1cc2c3c(c1)c1c(n3C[C@@](C)(c3ccncc3)O[C@H]2C)CCN(C)C1` [B162] the figure was 14%; with `Cc1cc(/C=C/c2ccc(C)nc2)c2c(c1)c1c(n2C)CCN(C)C1` [A14], 12%. In the case of `Cc1cc(C#Cc2ccncc2)c2c(c1)c1c(n2C)CCN(C)C1` [A17], the viability at 0.01 µM in the test with SH-SY5Y cells worked out at 10.8%. Also, the inhibition at 0.1 µM in test [1] amounted to 14%. On to `Cc1cc(C#Cc2ccc(C)nc2)c2c(c1)c1c(n2C)CCN(C)C1` [A12], for which, in the test on SH-SY5Y cells, the viability at 0.01 µM stood at 35.7%. In test [1], the inhibition at 0.1 µM was -4%. `C#Cc1cc(C)cc2c3c(n(C)c12)CCN(C)C3` [A10]: in test [1], the inhibition at 0.1 µM was determined as 23%. Consider `Cc1cc(-c2ccc(F)cc2)c2c(c1)c1c(n2C)CCN(C)C1` [A7], for which the inhibition at 0.1 µM in test [1] worked out at 10%. For `Cc1ccc(C#Cc2cc(Cl)cc3c4c(n(C)c23)CCN(C)C4)cn1` [A18], the viability at 0.01 µM with SH-SY5Y cells stood at 26%. The inhibition at 0.1 µM in test [1] came to 6%. For the compound `C/C(=C\c1cc(C)cc2c3c(n(C)c12)CCN(C)C3)c1ccncc1` [A11], in the test with SH-SY5Y cells, the viability at 0.01 µM came to 37.6%. Besides, the inhibition at 0.1 µM in test [1] amounted to 4%. With `C/C(=C\c1cc(C)cc2c3c(n(C)c12)CCN(C)C3)c1ccc(C)nc1` [A15], the inhibition at 0.1 µM in test [1] came to 20%. Regarding `Cc1cc(CCc2ccc(C)nc2)c2c(c1)c1c(n2C)CCN(C)C1` [A13], the viability at 0.01 µM in the test with SH-SY5Y cells amounted to 19.7%. The inhibition at 0.1 µM in test [1] was -12%. As for `Cc1cc2c3c(c1)c1c(n3C[C@](C)(c3ccncc3)O[C@H]2C)CCN(C)C1` [B163], in test [1], the inhibition at 0.1 µM came out at 5%.

(Values after patent US20140303144A1, “COMPOUNDS AND METHODS OF TREATING HYPERTENSION” (Medivation Technologies, Inc., priority 2011, published 2014).)
